The term IC50 denotes the midpoint of a concentration-inhibition curve.

Data set [1] deals with PC-3 (Human prostate cancer cell line). Nature of the data set: MTT cell viability assay, PC-3. In kind it is cell-based. The note with it: Homo sapiens; PC-3, MTT. Here is the method: (§1) Cell viability was assayed by 3(4,5-dimethylthiazol-2-yl)-2,5-diphenyltetrazolium bromide (MTT). Briefly. COLO 205, HCT116 and HT29 cells were plated at a density of 2×10^2 cells/mL into 96 well plates. After overnight growth, cells were treated with a series of concentrations of pterostilbene or 3-hydroxypterostilbene for 24 h. The final concentrations of DMSO in the culture medium were <0.05%. At the end of treatment, 0.2% MTT was added and cells were incubated for a further 4 h. Cell viability was determined by scanning with an ELISA reader with a 570 nm filter.
The MTT reaction explained in Para 0040 was also used to assess the cell viability of human prostate cancer cells (PC-3) in the presence of pterostilbene and 3-hydroxypterostilbene. The results (FIG. 1) are represented in Table II.
A general note: Formazan colour is commonly taken as a measure of viable cells.

In data set [2] the test system is HT-29 cells. The data set can be described thus: MTT cell viability assay, HT29. The note with it: Homo sapiens; HT-29, MTT, 24 h. In kind it is cell-based. On the procedure:
(§2) The human colon cancer cell lines COLO 205, HCT116 and HT29 were purchased from the American Type Culture Collection (Rockville, Md.). Cell lines were grown in RPMI1640 supplemented with 10% heat inactivated fetal bovine serum (GIBCO BRL, Grand Island, N.Y.), 100 units/mL of penicillin, 100 μg/mL of streptomycin), 2 mM L-glutamine (GIBCO BRL, Grand Island, N.Y.), and were kept at 37° C. in a humidified 5% CO2 incubator. Pterostilbene and 3-HPT were dissolved in dimethyl sulfoxide (DMSO, as final concentration of 0.05%). Cells were treated with 0.05% DMSO as vehicle control.
as §1

The test system of data set [3] is COLO 205 cells. Nature of the data set: ROS production by DCFHDA flow cytometry. In kind it is cell-based, human. The note with it: COLO 205, 50 μM, 15 min; from 114. Here is the method:
(§3) For mitochondrial membrane potential and ROS production, COLO 205 cells were treated as described under Example III for 15 min, and then DiOC6 [3,3′-dihexyloxacarbocyanine iodide] (40 nM) or DCFHDA [2′,7′-dichlorodihydrofluorescein diacetate] (20 μM) was added to the medium for a further 30 min at 37° C. After washing with PBS, the fluorescence intensity was determined by FAC Scan cytometry. The DiOC6 fluorescence intensity shifted to the left from 224 to 117 and 75 in pterostilbene and 3-HPT induced apoptotic COLO 205 cells, respectively. […] The role of ROS in the induction of apoptosis is well recognized. […] The imbalance of ROS concentrations could play an important role as an early mediator in 3-HPT induced apoptosis.
Background: Flow cytometry measures light scatter and fluorescence of single cells or particles in a stream.

For data set [4], the system named is HCT-116 cells. The data set can be described thus: MTT cell viability assay, HCT116. In kind it is cell-based. The conditions noted are these: Homo sapiens; HCT-116, MTT, 24 h. On the procedure:
as §2, §1

In data set [5] the test system is COLO 205 xenograft tumors. Nature of the data set: COLO 205 xenograft model. The data set is classed as in vivo. The note with it: 10 mg/kg/d i.p., 15 days, nude mice. Here is the method: Male Balb/c nude mice at 3-4 weeks old (weighing 16-18 g) were obtained from the BioLASCO Experimental Animal Center (BioLASCO, Taipei, Taiwan). All animals were maintained in pathogen free sterile isolators and in a controlled atmosphere (25±1° C. at 50% relative humidity) and with a 12 h light-12 h dark cycle according to institutional guidelines. Animals were fed with standard AIN76 diet and all food, water, caging, and bedding were sterilized prior to use. Animals had free access to food and water at all times. Food cups were replenished with fresh diet every day. All animal experimental protocol used in this study was approved by Institutional Animal Care and Use Committee of the National Kaohsiung Marine University (IACUC, NKMU, #099AAA902, Validity dates: Jan. 1, 2009 Jul. 31, 2012). After 1 week of acclimation, colon cancer COLO 205 cells (5×10^6) in 0.2 mL PBS were injected subcutaneously between the scapulae of each nude mouse. After transplantation, tumor size was measured using calipers, and the tumor volume was estimated according to the following formula: tumor volume […]=L×W2/2, where L is the length and W is the width. Once tumors reached a mean size of […], mice were randomly divided into three groups (6 animals/group). Mice were i.p. injection with pterostilbene or 3-hydroxypterostilbene (10 mg/kg/d, respectively) for 15 days, while control animals were received injection of corn oil. The diet intake and body weight of each animal was monitored every day. The tumor volume was assessed and recorded every 5 days using caliper measurements. After 15 days, the mice were sacrificed by […] and the liver, kidneys, spleen and solid tumors were excised immediately and weighed. Average tumor volume and tumor weight of each group were represent the mean±standard deviation (SD). Average tumor volumes were recorded during the treatment and average tumor weights were measured at the end of experiment. Six samples were analyzed in each group, and values represent the mean±SD. *P<0.05 and **P<0.01, compared with control group. #P<0.05, compared with pterostilbene treated group. The tumor tissues were cut into several portion for western blot analysis or stored at −80° C. […] Furthermore, in mice receiving these treatment regimens, no gross signs of toxicity were observed during visible inspections of general appearance and microscopic examinations of individual organs. • 2.

In data set [6] the test system is COLO 205 cells. Nature of the data set: Flow cytometry analysis of subG1 cell population (PI staining). The data set is classed as cell-based, human. The note with it: 24 h. Here is the method:
For subG1 cell population analysis, COLO 205 cells (2×10^5 cells/mL) were cultured in 12 well and treatment with various concentrations of pterostilbene or 3-hydroxypterostilbene for 24 h. The cells were then harvested, washed with PBS, re-suspended in 200 μL of PBS, and fixed in 800 μL of iced 100% ethanol at […]. After being left to stand overnight, the cell pellets were collected by centrifugation, re-suspended in 1 mL of hypotonic buffer (0.5% Triton X100 in PBS and 0.5 μg/mL RNase) with PI (50 μg/mL) and incubated at 37° C. in the dark for 30 min. Fluorescence emitted from the PIDNA complex was quantitated after excitation of the fluorescent dye by FACScan cytometry (Becton Dickinson, San Jose, Calif.). […] The results indicated a higher apoptotic potential of 3-hydroxypterostilbene for COLO 205 cells.

Data set [7] deals with COLO 205 cells. Nature of the data set: Mitochondrial membrane potential by DiOC6 flow cytometry. In kind it is cell-based, human. The conditions noted are these: COLO 205, 50 μM, 15 min; shifted from 224. Here is the method:
as §3

The test system of data set [8] is COLO 205 cells. Nature of the data set: MTT cell viability assay, COLO 205. The data set is classed as cell-based. The note with it: Homo sapiens, COLO205, MTT, 24 h. Here is the method: as §2, §1

As to `COc1cc(/C=C/c2ccc(O)cc2)cc(OC)c1` [Pterostilbene, pterostilbene], the IC50 is above 20 µM in data set [1], 80.6 ± 3.3 µM in data set [2], 47.1 ± 0.6 µM in data set [4] and 33.4 ± 0.2 µM in data set [8]. In data set [3], the “mean DCFHDA fluorescence intensity (ROS)” value was 141. In addition, the “side effects or toxicity (body and organ weights, gross signs)” value in data set [5] is given as “no noticeable side effects or toxicity”. Moreover, the “percentage of apoptotic COLO 205 cells (subG1)” value is 6.2% in data set [6] (5 μM), 8.4% in data set [6] (10 μM), 10.2% in data set [6] (25 μM) and 14.8% in data set [6] (50 μM). Besides, the “DiOC6 fluorescence intensity (mitochondrial membrane potential)” value in data set [7] was found to be 117.
